Measured values taken from paper PMC3454369, “Functional Redundancy of Class I Phosphoinositide 3-Kinase (PI3K) Isoforms in Signaling Growth Factor-Mediated Human Neutrophil Survival” (PLoS ONE, 2012).
Where two headings read alike, the source gives them in different places.

Legend:
[1] = test system: PKB (Akt) phosphorylation; assay: Western blot for rhGM-CSF-induced PKB (Akt Ser473) phosphorylation in human neutrophils; type: cell-based; conditions: 20 min pre-incubation, rhGM-CSF 10 ng/ml 10 min
Description: Neutrophils were suspended at 5×10^6/ml and 0.5 ml aliquots were pre-incubated for 20 minutes with PI3K inhibitors at 37°C prior to treatment with GM-CSF 10 ng/ml for 10 min. The cells were washed with ice-cold phosphate-buffered saline and pelleted and resuspended in 50 µl of cold lysis buffer (20 mM Tris-HCl (pH 7.5), 150 mM NaCl, 1 mM EDTA, 1 mM EGTA, 1% Triton X-100, 2.5 mM sodium pyrophosphate, 1 mM β-glycerophosphate, 1 mM PMSF, 1 mM sodium fluoride, 2 mM sodium orthovanadate, 10 µg/ml leupeptin, 10 µg/ml aprotinin) and incubated on ice for 10 minutes. The Triton-insoluble fraction was pelleted by centrifugation at 10 000 g for 15 min at 4°C. The protein concentration of the supernatant was determined using a colorimetric assay (bicinchoninic acid; BCA, BIO Rad Laboratories). SDS sample buffer was added to each neutrophil lysate and heated to 99°C for 5 min. 30 µg of protein/well was loaded on to each 10% SDS-polyacrylamide gel and subjected to electrophoresis at 150 V and transferred to a PVDF Immobilon membrane using a semi-dry transfer system at 130 mA for 90 minutes. The membrane was blocked for 1 hour with 5% non-fat dry milk in Tris-HCl buffered saline containing 0.1% (w/v) Tween 20 then immunoblotted overnight at 4°C in TBS-Tween-20 with primary monoclonal antibody to total Akt rabbit mAb or Phospho-Akt (Ser^473) rabbit mAb (Cell Signaling Technology 40585 and 9272 respectively) at a dilution of 1∶1000 in TBS-Tween 20 with 5% Bovine Serum Albumin. The membrane was washed three times in TBS-Tween 20 and incubated with ECL HRP-conjugated donkey anti-rabbit IgG (Fab2 fragment; GE Healthcare) at a dilution of 1∶10 000 in TBS-Tween 20 for 1 hour at room temperature. Membranes were developed using ECL-Plus kit (GE Healthcare).
Figure 5 Combined inhibition of all Class IA PI3Ks abrogates rhGM-CSF mediated PKB phosphorylation. […] Western blots from the experiments describe in B. above were scanned and analyzed using the Aida Image Analyzer 3.27 software package. […]

Human neutrophils [2] = assay: rhGM-CSF-modulated human neutrophil apoptosis, annexin V/PI flow cytometry; type: cell-based; conditions: rhGM-CSF 10 ng/ml; for Effect on rhGM-CSF-mediated human neutrophil survival: 20 h
Description: To examine the effects of small molecule PI3K inhibitors on rhGM-CSF (10 ng/ml) -modulated apoptosis, neutrophils (5×10^6/ml) were re-suspended in Iscove’s modified Dulbecco medium (IMDM) supplemented with 10% autologous serum, 100 U/mL penicillin and 100 µg/mL streptomycin in non-tissue culture treated flat bottom Falcon Flexiwell plates in a humidified 5% CO2 atmosphere at 37°C.

p110δ [3] = molecular target: T1, p110δ (Homo sapiens, UniProt O00329); conditions: in vitro kinase assay; data compiled from published work; cited from earlier work
p110α [4] = molecular target: T2, p110α (Homo sapiens, UniProt P42336); conditions: in vitro kinase assay; data compiled from published work; cited from earlier work
p110γ [5] = molecular target: T3, p110γ (Homo sapiens, UniProt P48736); conditions: in vitro kinase assay; data compiled from published work; cited from earlier work
Human neutrophils [6] = assay: Morphologic analysis of human neutrophil apoptosis (light microscopy of cytospins); type: cell-based; conditions: rhGM-CSF 10 ng/ml, 20 h; for Cytoplasmic vacuolation of human neutrophils: light microscopy, PI-103 at 1 µM or above, LY294002 10 µM
[7] = test system: Peripheral blood neutrophils from exacerbating COPD patients; assay: Ex vivo apoptosis of peripheral blood neutrophils from patients with exacerbation of COPD, annexin V/PI flow cytometry; type: cell-based, human; conditions: 20 hours culture; for Effect on reduced spontaneous apoptosis of neutrophils from exacerbating COPD patients: ex vivo, 20 min pre-incubation
[8] = test system: Murine peripheral blood neutrophils; conditions: for Effect on constitutive murine neutrophil apoptosis: no rmGM-CSF, 8 h and 4 h
PI3K Class I isoforms = test system: PI3K Class I isoforms; design: method as in PMID 20179189; conditions: competitive inhibition; cited from earlier work
[9] = Cell accessibility of the inhibitor (footnote of Table 3); design: key: *: Poor cell accessibility; conditions: footnote mark at the inhibitor's name
p110α [10] = molecular target: T2, p110α; assay: biochemical
p110δ [11] = molecular target: T1, p110δ; assay: biochemical
p110β = p110β (Homo sapiens, UniProt P42338); assay: biochemical
Human neutrophils [12] = assay: fMLP-stimulated neutrophil oxidative burst (luminol/HRP chemiluminescence); type: cell-based; conditions: fMLP 100 nM
Description: All PI3K inhibitors were dissolved in dimethyl sulfoxide (DMSO) and stored at −20°C. […] The concentration response curves for NVS-PI3-3 and NVS-PI3-4 on the neutrophil respiratory burst generated as described in [10] are shown in Figure 2.  Figure 2 Effect of NVS-PI3-4 and NVS-PI3-3 on Neutrophil Oxidative Burst. Human neutrophils were suspended at 4×10^6/ml in HBSS at 37°C and either primed with TNFα 10 ng/ml or treated with vehicle control, prior to the addition of NVS-PI3-4 (A) or NVS-PI3-3 (B) at the indicated concentrations. […] Triangular symbols represent TNFα-primed cells; unprimed cells depicted by squares.

p110γ [13] = molecular target: T3, p110γ; assay: biochemical
Human neutrophils [14] = assay: rhGM-CSF-modulated human neutrophil apoptosis, annexin V/PI flow cytometry; type: cell-based; conditions: no GM-CSF; 20 h (also 6 h); LY294002 10 µM
[15] = inhibitor 1 µM, used individually
[16] = C57BL/6, rmGM-CSF 0.1 ng/ml, 8 hours
[17] = C57BL/6, rmGM-CSF 0.1 ng/ml, 8 hours, concentration-dependent
[18] = inhibitor 3 µM, used individually
[19] = TNFα 10 ng/ml-primed human neutrophils, read-out: Primed IC50, neutrophil oxidative burst
[20] = unprimed human neutrophils, read-out: Unprimed IC50, neutrophil oxidative burst

T1 sequence (O00329 whole entry, species assumed): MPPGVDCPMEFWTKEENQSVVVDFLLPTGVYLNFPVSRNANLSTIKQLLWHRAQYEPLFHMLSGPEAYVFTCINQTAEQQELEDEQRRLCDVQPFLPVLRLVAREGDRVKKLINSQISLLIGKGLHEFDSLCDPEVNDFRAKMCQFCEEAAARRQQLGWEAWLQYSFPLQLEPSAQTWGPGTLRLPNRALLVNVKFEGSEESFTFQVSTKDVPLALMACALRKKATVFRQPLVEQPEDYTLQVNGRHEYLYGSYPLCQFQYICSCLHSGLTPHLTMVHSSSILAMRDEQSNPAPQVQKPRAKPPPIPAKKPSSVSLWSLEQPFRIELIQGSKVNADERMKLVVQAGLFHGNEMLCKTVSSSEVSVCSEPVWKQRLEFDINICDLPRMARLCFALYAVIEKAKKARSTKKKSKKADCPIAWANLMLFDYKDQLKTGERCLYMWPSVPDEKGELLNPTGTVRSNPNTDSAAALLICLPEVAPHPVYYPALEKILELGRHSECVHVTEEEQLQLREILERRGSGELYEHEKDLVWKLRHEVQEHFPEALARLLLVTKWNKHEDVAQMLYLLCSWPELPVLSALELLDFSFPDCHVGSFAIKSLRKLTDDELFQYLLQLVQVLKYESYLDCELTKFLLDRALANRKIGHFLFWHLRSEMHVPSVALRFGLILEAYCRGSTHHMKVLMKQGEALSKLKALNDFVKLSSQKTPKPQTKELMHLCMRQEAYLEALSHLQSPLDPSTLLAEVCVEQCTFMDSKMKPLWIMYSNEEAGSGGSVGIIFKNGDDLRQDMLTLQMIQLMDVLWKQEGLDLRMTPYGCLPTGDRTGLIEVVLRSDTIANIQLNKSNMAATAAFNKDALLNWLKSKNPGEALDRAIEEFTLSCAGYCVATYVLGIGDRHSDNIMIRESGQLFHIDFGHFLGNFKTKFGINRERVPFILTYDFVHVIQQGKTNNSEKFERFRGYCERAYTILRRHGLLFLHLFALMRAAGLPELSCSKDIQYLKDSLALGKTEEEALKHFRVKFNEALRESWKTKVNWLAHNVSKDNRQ
T1 sequence (P27986 whole entry partner, species assumed): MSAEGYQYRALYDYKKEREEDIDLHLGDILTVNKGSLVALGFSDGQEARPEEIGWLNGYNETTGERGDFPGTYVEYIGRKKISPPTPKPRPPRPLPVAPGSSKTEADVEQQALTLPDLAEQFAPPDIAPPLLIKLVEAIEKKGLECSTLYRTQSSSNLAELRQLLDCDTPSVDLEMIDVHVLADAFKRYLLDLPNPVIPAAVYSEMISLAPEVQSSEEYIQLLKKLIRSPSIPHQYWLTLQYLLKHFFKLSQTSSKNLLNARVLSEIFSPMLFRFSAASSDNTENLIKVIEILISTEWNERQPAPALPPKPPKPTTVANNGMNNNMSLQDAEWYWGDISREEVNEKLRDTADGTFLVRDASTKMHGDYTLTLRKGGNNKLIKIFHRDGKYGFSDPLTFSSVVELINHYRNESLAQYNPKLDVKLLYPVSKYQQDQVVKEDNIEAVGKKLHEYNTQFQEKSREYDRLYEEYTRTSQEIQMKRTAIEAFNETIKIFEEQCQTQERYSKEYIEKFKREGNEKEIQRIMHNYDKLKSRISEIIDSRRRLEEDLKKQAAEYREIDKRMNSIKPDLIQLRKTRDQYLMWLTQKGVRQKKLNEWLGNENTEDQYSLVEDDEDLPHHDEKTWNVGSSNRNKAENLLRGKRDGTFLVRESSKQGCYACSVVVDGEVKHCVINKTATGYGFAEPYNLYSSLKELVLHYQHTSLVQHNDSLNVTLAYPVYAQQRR
T2 sequence (P42336 whole entry, species assumed): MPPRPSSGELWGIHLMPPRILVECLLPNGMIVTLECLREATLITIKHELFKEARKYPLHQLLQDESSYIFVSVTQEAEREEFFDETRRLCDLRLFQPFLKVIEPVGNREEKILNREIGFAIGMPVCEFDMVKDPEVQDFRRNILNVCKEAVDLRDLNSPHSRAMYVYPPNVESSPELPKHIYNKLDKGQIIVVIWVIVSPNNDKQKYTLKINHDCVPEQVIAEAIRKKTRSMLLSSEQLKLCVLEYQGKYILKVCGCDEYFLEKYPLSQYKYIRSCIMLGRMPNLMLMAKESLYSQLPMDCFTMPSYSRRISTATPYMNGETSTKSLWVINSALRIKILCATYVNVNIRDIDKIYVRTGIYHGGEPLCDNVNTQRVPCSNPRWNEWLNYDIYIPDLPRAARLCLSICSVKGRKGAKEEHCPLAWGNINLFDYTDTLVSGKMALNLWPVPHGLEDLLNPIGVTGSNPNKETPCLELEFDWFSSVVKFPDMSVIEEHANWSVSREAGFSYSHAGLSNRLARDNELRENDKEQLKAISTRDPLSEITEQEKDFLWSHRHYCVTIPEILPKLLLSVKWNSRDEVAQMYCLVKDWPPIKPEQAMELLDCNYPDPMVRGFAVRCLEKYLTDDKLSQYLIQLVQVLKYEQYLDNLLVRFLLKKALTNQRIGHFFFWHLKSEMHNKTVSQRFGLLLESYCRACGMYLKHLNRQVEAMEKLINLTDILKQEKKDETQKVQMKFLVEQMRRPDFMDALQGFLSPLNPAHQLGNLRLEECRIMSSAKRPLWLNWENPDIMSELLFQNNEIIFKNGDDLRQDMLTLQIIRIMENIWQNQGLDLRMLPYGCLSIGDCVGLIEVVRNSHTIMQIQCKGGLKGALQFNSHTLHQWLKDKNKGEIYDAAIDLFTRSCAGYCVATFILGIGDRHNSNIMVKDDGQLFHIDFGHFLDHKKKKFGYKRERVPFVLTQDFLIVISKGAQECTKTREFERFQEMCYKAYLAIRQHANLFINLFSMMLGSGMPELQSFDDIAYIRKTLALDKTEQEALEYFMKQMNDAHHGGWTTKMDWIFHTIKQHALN
T2 sequence (P27986 whole entry partner, species assumed): as the sequence (P27986 whole entry partner, species assumed) above
T3 sequence (P48736 whole entry, species assumed): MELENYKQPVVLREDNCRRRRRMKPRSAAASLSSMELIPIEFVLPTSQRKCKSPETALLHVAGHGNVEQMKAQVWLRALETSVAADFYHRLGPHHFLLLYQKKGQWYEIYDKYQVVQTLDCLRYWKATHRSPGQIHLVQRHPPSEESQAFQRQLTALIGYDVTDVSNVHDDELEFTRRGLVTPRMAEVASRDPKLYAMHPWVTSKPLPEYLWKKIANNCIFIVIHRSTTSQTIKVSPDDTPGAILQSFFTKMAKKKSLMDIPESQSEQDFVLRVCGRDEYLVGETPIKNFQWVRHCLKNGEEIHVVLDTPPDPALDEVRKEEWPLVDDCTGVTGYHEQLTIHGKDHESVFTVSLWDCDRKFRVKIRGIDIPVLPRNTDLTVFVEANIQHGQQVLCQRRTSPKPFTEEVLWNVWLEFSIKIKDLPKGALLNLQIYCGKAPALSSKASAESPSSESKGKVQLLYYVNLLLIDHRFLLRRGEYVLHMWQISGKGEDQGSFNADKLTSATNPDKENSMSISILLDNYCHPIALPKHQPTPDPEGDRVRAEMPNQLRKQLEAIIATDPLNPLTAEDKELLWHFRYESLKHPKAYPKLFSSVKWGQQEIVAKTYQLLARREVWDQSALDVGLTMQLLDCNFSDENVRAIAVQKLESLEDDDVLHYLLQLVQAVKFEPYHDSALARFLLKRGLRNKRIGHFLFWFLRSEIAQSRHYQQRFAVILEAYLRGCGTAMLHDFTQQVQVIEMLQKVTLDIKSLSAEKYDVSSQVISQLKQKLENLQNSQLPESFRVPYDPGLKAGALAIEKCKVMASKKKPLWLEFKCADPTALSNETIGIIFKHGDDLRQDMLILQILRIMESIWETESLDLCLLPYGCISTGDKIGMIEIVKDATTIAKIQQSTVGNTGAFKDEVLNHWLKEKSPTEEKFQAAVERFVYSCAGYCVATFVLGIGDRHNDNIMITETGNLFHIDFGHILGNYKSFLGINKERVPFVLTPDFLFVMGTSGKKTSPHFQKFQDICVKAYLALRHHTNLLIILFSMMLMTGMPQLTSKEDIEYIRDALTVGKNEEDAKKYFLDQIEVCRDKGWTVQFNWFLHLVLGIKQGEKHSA
Sequence of p110β (P42338 whole entry, species assumed): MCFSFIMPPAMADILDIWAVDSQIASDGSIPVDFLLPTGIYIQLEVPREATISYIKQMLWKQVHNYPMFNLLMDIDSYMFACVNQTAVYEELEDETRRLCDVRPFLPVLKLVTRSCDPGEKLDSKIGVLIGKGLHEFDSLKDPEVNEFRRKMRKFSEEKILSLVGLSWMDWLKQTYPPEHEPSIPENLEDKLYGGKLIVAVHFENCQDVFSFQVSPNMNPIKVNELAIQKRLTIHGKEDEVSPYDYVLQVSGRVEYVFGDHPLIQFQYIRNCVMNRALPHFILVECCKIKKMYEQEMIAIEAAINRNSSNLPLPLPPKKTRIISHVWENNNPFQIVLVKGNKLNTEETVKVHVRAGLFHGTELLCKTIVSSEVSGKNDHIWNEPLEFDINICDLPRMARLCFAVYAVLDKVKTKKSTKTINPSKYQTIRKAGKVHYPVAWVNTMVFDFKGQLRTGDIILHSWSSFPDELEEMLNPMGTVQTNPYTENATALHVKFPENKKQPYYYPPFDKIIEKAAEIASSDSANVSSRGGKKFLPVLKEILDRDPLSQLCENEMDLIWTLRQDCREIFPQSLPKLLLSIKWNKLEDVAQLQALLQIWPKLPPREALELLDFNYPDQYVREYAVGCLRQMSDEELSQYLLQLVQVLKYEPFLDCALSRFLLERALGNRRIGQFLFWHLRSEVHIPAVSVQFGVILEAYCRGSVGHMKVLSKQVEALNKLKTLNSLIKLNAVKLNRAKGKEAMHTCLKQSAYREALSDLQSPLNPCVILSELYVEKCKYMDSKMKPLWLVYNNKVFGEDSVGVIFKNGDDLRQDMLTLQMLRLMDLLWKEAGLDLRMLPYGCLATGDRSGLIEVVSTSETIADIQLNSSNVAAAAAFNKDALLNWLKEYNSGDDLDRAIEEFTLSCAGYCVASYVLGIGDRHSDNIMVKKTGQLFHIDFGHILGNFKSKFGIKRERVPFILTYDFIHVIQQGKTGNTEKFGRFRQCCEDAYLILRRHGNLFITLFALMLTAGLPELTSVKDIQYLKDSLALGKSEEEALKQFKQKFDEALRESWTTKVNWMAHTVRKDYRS
Sequence of p110β (P27986 whole entry partner, species assumed): as the sequence (P27986 whole entry partner, species assumed) above

Question: Which “Effect on GM-CSF-induced PKB phosphorylation” value [1] does the source give for `COC[C@H]1OC(=O)c2coc3c2[C@@]1(C)C1=C(C3=O)[C@@H]2CCC(=O)[C@@]2(C)C[C@H]1OC(C)=O` [Wortmannin] here?
Answer: abolished

Question: What about the “Effect on rhGM-CSF-mediated human neutrophil survival” value (Human neutrophils [2]; inhibitor 100 nM, replenished during culture) of the same molecule?
Answer: blocked the anti-apoptotic effect of GM-CSF, although less completely than 10 µM LY294002

Question: Which results are given for `Cc1cc(C(C)Nc2ccccc2)c2nc(N3CCOCC3)cc(=O)n2c1` (stereo not drawn) [TGX-221]?
Answer: IC50 (p110δ [3]): 0.1 µM; Effect on rhGM-CSF-mediated human neutrophil survival (Human neutrophils [2]; inhibitor 10 µM): failed to abrogate GM-CSF mediated survival; IC50 (p110α [4]): 5 µM; IC50 (p110γ [5]): 3.5 µM

Question: With `O=c1[nH]c2ccccc2n1C1CCN(Cc2ccc(-c3nc4cc5nc[nH]c5cc4nc3-c3ccccc3)cc2)CC1` [AKT-i1/2] as the molecule, how does the “Effect on GM-CSF-mediated neutrophil survival” value (Human neutrophils [6]; increasing concentrations, morphology) read?
Answer: suppresses GM-CSF-mediated neutrophil survival

Question: For `Cc1cc(C(C)Nc2ccccc2C(=O)O)c2nc(N3CCOCC3)cc(=O)n2c1` (stereo not drawn) [HBC-417], which “Effect on rhGM-CSF-mediated human neutrophil survival” value (Human neutrophils [2]; [15]) is on record?
Answer: failed to affect GM-CSF-mediated survival

Question: Which “Effect on reduced spontaneous apoptosis of neutrophils from exacerbating COPD patients” value [7] does the source give for `CC#C[C@]1(O)CC[C@H]2[C@@H]3CCC4=CC(=O)CCC4=C3[C@@H](c3ccc(N(C)C)cc3)C[C@@]21C` [RU-486] here?
Answer: lack of effect

Question: With `NC(=O)[C@@H]1CCCN1C(=O)Nc1nc2ccc(-c3cnc(N)c(C(F)(F)F)c3)cc2s1` [NVS-PI3-2] as the molecule, how does the “Effect on rhGM-CSF-mediated human neutrophil survival” value (Human neutrophils [2]; [15]) read?
Answer: failed to affect GM-CSF-mediated survival

Question: Which “Effect of GM-CSF on human neutrophil apoptosis” value (Human neutrophils [2]; 6–24 h) does the source give for “rhGM-CSF: Recombinant human granulocyte-macrophage colony stimulating factor, obtained from R&D Systems” here?
Answer: delays human neutrophil apopotosis

Question: And the “Effect of rhGM-CSF on survival of neutrophils from exacerbating COPD patients” value ([7]; 10 ng/ml)?
Answer: caused a fully PI3K-dependent additional survival effect

Question: Which “Effect on GM-CSF-induced PKB phosphorylation” value [1] does the source give for `Oc1cccc(-c2nc(N3CCOCC3)c3oc4ncccc4c3n2)c1` [PI-103] here?
Answer: abolished

Question: What about the “Vacuole formation or necrosis in murine neutrophils” value [8] of the same molecule?
Answer: did not exhibit significant vacuolation

Question: And the “Concentration giving maximal effect on rmGM-CSF survival effect” value [8, 16]?
Answer: 3 µM

Question: What about the “Effect on rmGM-CSF cytoprotective (survival) effect in murine neutrophils” value [8, 17] of the same molecule?
Answer: blocked the rmGM-CSF survival effect

Question: And the “Effect on rmGM-CSF-induced survival, wild type neutrophils” value ([8]; PI-103 0.3 µM, C57BL/6, rmGM-CSF 0.1 ng/ml, 8 hours)?
Answer: had no effect on rmGM-CSF-induced survival of wild type neutrophils

Question: And the “Effect on rmGM-CSF-induced survival, p110γKO and p110δKOγKO neutrophils” value ([8]; PI-103 0.3 µM, rmGM-CSF 0.1 ng/ml, 8 hours)?
Answer: attenuated the rmGM-CSF survival effect

Question: What about the “Effect on constitutive murine neutrophil apoptosis” value [8] of the same molecule?
Answer: did not affect constitutive apoptosis

Question: What about the “IC50 against all PI3K Class I isoforms” value (PI3K Class I isoforms) of the same molecule?
Answer: submicromolar range

Question: What about the Cell accessibility [9] of the same molecule?
Answer: PI-103 (pan class I) ^*

Question: What about the “Effect on rhGM-CSF-mediated human neutrophil survival” value (Human neutrophils [2]; inhibitor 10 µM) of the same molecule?
Answer: did indeed appear to inhibit the effects of rhGM-CSF on neutrophil apoptosis

Question: And the “Morphological assessment of apoptosis in neutrophils treated with rhGM-CSF and inhibitor” value (Human neutrophils [6]; PI-103 10 µM)?
Answer: did not reveal classical apoptotic morphology

Question: And the “Cytoplasmic vacuolation of human neutrophils” value (Human neutrophils [6])?
Answer: extensive cytoplasmic vacuolation was seen

Question: With `Cc1ccccc1-n1c(Cn2cnc3c(N)ncnc32)nc2cccc(C)c2c1=O` [IC87114] as the molecule, how does the “Effect on rhGM-CSF-mediated human neutrophil survival” value (Human neutrophils [2]; [18]) read?
Answer: failed to abrogate GM-CSF mediated survival

Question: What does the source list for `CC(=O)c1ccc(-c2sc(NC(=O)NCCC(=O)NC(C)(C)C)nc2C)cc1` [NVS-PI3-4]?
Answer: IC50 (p110α [10]): 1.8 µM; IC50 (p110δ [11]): 0.75 µM; Effect on rhGM-CSF-mediated human neutrophil survival (Human neutrophils [2]; [15]): failed to affect GM-CSF-mediated survival; IC50 (p110β): 0.25 µM; IC50 (Human neutrophils [12]; [19]): 4 µM; IC50 (Human neutrophils [12]; [20]): 0.71 µM

Question: For `Cc1cc(NC(=O)CCNC(=O)Nc2nc(C)c(-c3ccc(-n4cccn4)cc3)s2)no1` [NVS-PI3-3], which IC50 (p110α [10]) is on record?
Answer: 0.18 µM

Question: And the IC50 (p110δ [11])?
Answer: 0.003 µM

Question: And the “Effect on rhGM-CSF-mediated human neutrophil survival” value (Human neutrophils [2]; [15])?
Answer: failed to affect GM-CSF-mediated survival

Question: And the IC50 (p110β)?
Answer: 0.6 µM

Question: What about the IC50 (Human neutrophils [12]; [19]) of the same molecule?
Answer: 0.525 µM

Question: And the IC50 (Human neutrophils [12]; [20])?
Answer: 0.044 µM

Question: And the IC50 (p110γ [13])?
Answer: 0.31 µM

Question: Which Cell accessibility [9] does the source give for `O=C1NC(=O)/C(=C\c2ccc3nccnc3c2)S1` [AS605240] here?
Answer: AS605240 (γ) ^*

Question: What about the “Effect on rhGM-CSF-mediated human neutrophil survival” value (Human neutrophils [2]; [18]) of the same molecule?
Answer: failed to abrogate GM-CSF mediated survival

Question: What does the source list for `O=c1cc(N2CCOCC2)oc2c(-c3ccccc3)cccc12` [LY294002]?
Answer: Effect on GM-CSF-induced PKB phosphorylation [1]: abolished; Effect on constitutive human neutrophil apoptosis (Human neutrophils [14]): without affecting the extent of constitutive neutrophil apoptosis; Vacuole formation or necrosis in murine neutrophils [8]: nor did it induce vacuole formation or necrosis; Concentration giving maximal effect on rmGM-CSF survival effect [8, 16]: 10 µM; Effect on rmGM-CSF cytoprotective (survival) effect in murine neutrophils [8, 17]: abrogated the rmGM-CSF cytoprotective effect; Effect on constitutive murine neutrophil apoptosis [8]: had no effect on the rate of constitutive murine neutrophil apoptosis; Effect on rhGM-CSF-mediated human neutrophil survival (Human neutrophils [2]; inhibitor 10 µM): prevented rhGM-CSF-mediated human neutrophil survival; Effect on reduced spontaneous apoptosis of neutrophils from exacerbating COPD patients [7]: failed to restore the ability of exacerbating patient-derived neutrophils to undergo apoptosis in a timely fashion; Cytoplasmic vacuolation of human neutrophils (Human neutrophils [6]): not apparent

B1: rmGM-CSF: Recombinant mouse granulocyte-macrophage colony stimulating factor, purchased from Peprotech (protein, UniProt P01587 18-141, looked up)
Granulocyte-macrophage …: APTRSPITVTRPWKHVEAIKEALNLLDDMPVTLNEEVEVVSNEFSFKKLTCVQTRLKIFEQGLRGNFTKLKGALNMTASYYQTYCPPTPETDCETQVTTYADFIDSLKTFLTDIPFECKKPGQK
Question: Which “EC50 for delay of murine neutrophil apoptosis” value ([8]; C57BL/6 peripheral blood neutrophils, 8 hour, AnV/PI flow cytometry) does the source give for B1 here?
Answer: 0.0075 ng/mL

Question: And the “Effect on murine neutrophil apoptosis” value ([8]; concentration-dependent, all time points studied (0–12 h))?
Answer: significantly delayed
